Test results from patent publication US8952024B2, “Herbicidal pyrimidone derivatives” (E I du Pont de Nemours and Company, priority 2009, dated 2015).
Like-named read-outs stand apart in the source and are kept apart here.

What was measured:
Format in all cases: in vivo
[1] = tested on: chickweed (Stellaria media); assay: Test B postemergence plant response; conditions: Postemergence
Outline: (§1)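 Visual ratings from 0 (no effect) to 100 (complete control), made against controls 13–15 days after treatment, kept in a greenhouse. Compounds were applied postemergence to potted plants at the 1- to 4-leaf stage (2–18 cm).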

[2] = tested on: windgrass (Apera spica-venti); assay: Test B postemergence plant response; conditions: Postemergence
Outline: as §1

[3] = tested on: canarygrass (Phalaris minor); assay: Test B postemergence plant response; conditions: Postemergence
Outline: as §1

[4] = tested on: morningglory (Ipomoea spp.); assay: Test A pre-/postemergence plant response; conditions: Ipomoea, 240 h; for pest or weed control at 125 g/ha: 125 g ai/ha; for pest or weed control at 500 g/ha: 500 g ai/ha
Outline: (§2)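 Greenhouse trial, ~10 days. Soil (loam/sand) sprayed preemergence after seeding; emerged plants (1–2 leaf, 2–10 cm) sprayed postemergence in parallel. Response = visual injury vs untreated control, 0–100.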

[5] = tested on: wheat (Triticum aestivum); assay: Test A pre-/postemergence plant response; conditions: Triticum aestivum, 240 h; for plant injury at 125 g/ha: 125 g ai/ha; for plant injury at 500 g/ha: 500 g ai/ha
Outline: as §2

[6] = tested on: large crabgrass (Digitaria sanguinalis); assay: Test A pre-/postemergence plant response; conditions: Digitaria sanguinalis, 240 h; for pest or weed control at 125 g/ha: 125 g ai/ha; for pest or weed control at 500 g/ha: 500 g ai/ha
Outline: as §2

[7] = tested on: corn (Zea mays); assay: Test A pre-/postemergence plant response; conditions: Zea mays, 240 h; for Corn plant response rating (crop injury, 0 = no effect, 100 = complete kill) at 500 g/ha: 500 g ai/ha
Outline: as §2

[8] = tested on: barnyardgrass (Echinochloa crus-galli); assay: Test A pre-/postemergence plant response; conditions: Echinochloa crus-galli, 240 h; for pest or weed control at 125 g/ha: 125 g ai/ha; for pest or weed control at 500 g/ha: 500 g ai/ha
Outline: as §2

[9] = tested on: giant foxtail (Setaria faberii); assay: Test A pre-/postemergence plant response; conditions: Setaria faberi, 240 h; for pest or weed control at 125 g/ha: 125 g ai/ha; for pest or weed control at 500 g/ha: 500 g ai/ha
Outline: as §2

[10] = tested on: velvetleaf (Abutilon theophrasti); assay: Test A pre-/postemergence plant response; conditions: Abutilon theophrasti, 240 h; for pest or weed control at 125 g/ha: 125 g ai/ha; for pest or weed control at 500 g/ha: 500 g ai/ha
Outline: as §2

[11] = tested on: pigweed (Amaranthus retroflexus); assay: Test A pre-/postemergence plant response; conditions: Amaranthus retroflexus, 240 h; for pest or weed control at 125 g/ha: 125 g ai/ha; for pest or weed control at 500 g/ha: 500 g ai/ha
Outline: as §2

[12] = tested on: rice (Oryza sativa); assay: Test B flooded paddy test; conditions: Oryza sativa
Outline: (§3)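 Post-flood paddy application: compounds are introduced into water 3 cm deep over the soil, reaching plants at the 2-leaf stage. The water level is maintained, and after 13–15 days under greenhouse conditions, response is judged by eye relative to controls, where 100 means complete control.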

[13] = tested on: ducksalad (Heteranthera limosa); assay: Test B flooded paddy test; conditions: Heteranthera limosa, 360 h
Outline: as §3

Q: What does the source list for COc1ccc(-n2c(-c3ccccc3)ncc(C(=O)C3=C(O)CCCC3=O)c2=O)cc1 [Compound 4, 5-[(2-hydroxy-6-oxo-cyclohexen-1-yl)carbonyl]-3-(4-methoxyphenyl)-2-phenyl-4(3H)-pyrimidinone]?
A: Chickweed plant response rating ([1]; 250 g ai/ha, scale 0 to 100): 100; pest or weed control at 31 g/ha ([1]; Stellaria media, post-emergence, 360 h, 31 g ai/ha, scale 0 to 100 (0 no effect, 100 complete control), read-out: Plant response rating, Chickweed): 100%; pest or weed control at 62 g/ha ([1]; Stellaria media, post-emergence, 360 h, 62 g ai/ha, scale 0 (no effect) to 100 (complete control), 13 to 15 days, read-out: Plant response rating, Chickweed): 100%; pest or weed control at 125 g/ha ([1]; Stellaria media, post-emergence, 360 h, 125 g ai/ha, visual rating after 13 to 15 days, scale 0 (no effect) to 100 (complete control)): 100%; pest or weed control at 31 g/ha ([2]; Apera spica-venti, post-emergence, 360 h, 31 g ai/ha, scale 0 to 100 (0 no effect, 100 complete control), read-out: Plant response rating, Windgrass): 50%; pest or weed control at 62 g/ha ([2]; Apera spica-venti, post-emergence, 360 h, 62 g ai/ha, scale 0 (no effect) to 100 (complete control), 13 to 15 days, read-out: Plant response rating, Windgrass): 55%; pest or weed control at 125 g/ha ([2]; Apera spica-venti, post-emergence, 360 h, 125 g ai/ha, visual rating after 13 to 15 days, scale 0 (no effect) to 100 (complete control)): 60%; Windgrass plant response rating ([2]; 250 g ai/ha, scale 0 to 100): 75; pest or weed control at 31 g/ha ([3]; Phalaris minor, post-emergence, 360 h, 31 g ai/ha, scale 0 to 100 (0 no effect, 100 complete control), read-out: Plant response rating, Canarygrass): 10%; pest or weed control at 62 g/ha ([3]; Phalaris minor, post-emergence, 360 h, 62 g ai/ha, scale 0 (no effect) to 100 (complete control), 13 to 15 days, read-out: Plant response rating, Canarygrass): 20%; pest or weed control at 125 g/ha ([3]; Phalaris minor, post-emergence, 360 h, 125 g ai/ha, visual rating after 13 to 15 days, scale 0 (no effect) to 100 (complete control)): 75%; Canarygrass plant response rating ([3]; 250 g ai/ha, scale 0 to 100): 80; pest or weed control at 125 g/ha ([4]; post-emergence, Postemergence, visual injury, 0 to 100 scale (0 no effect, 100 complete control), approx. ten days, read-out: Morningglory plant response rating): 100%; pest or weed control at 500 g/ha ([4]; post-emergence, Postemergence, 0 to 100 scale, 0 = no effect, 100 = complete control, approx. ten days, read-out: Plant response rating, Morningglory): 100%; pest or weed control at 125 g/ha ([4]; pre-emergence, Preemergence, 0 to 100 scale, 0 = no effect, 100 = complete control, read-out: Plant response rating, Morningglory): 0%; pest or weed control at 500 g/ha ([4]; pre-emergence, Preemergence, visual injury, 0 to 100 scale (0 no effect, 100 complete control), approx. ten days, read-out: Plant response rating, Morningglory): 70%; plant injury at 125 g/ha ([5]; post-emergence, Postemergence, visual injury, 0 to 100 scale (0 no effect, 100 complete control), approx. ten days, read-out: Wheat plant response rating): 0%; plant injury at 500 g/ha ([5]; post-emergence, Postemergence, 0 to 100 scale, 0 = no effect, 100 = complete control, approx. ten days, read-out: Plant response rating, Wheat): 60%; plant injury at 125 g/ha ([5]; pre-emergence, Preemergence, 0 to 100 scale, 0 = no effect, 100 = complete control, read-out: Plant response rating, Wheat): 0%; plant injury at 500 g/ha ([5]; pre-emergence, Preemergence, visual injury, 0 to 100 scale (0 no effect, 100 complete control), approx. ten days, read-out: Plant response rating, Wheat): 20%; pest or weed control at 125 g/ha ([6]; post-emergence, Postemergence, visual injury, 0 to 100 scale (0 no effect, 100 complete control), approx. ten days, read-out: Crabgrass, Large plant response rating): 70%; pest or weed control at 500 g/ha ([6]; post-emergence, Postemergence, 0 to 100 scale, 0 = no effect, 100 = complete control, approx. ten days, read-out: Plant response rating, Crabgrass, Large): 90%; pest or weed control at 125 g/ha ([6]; pre-emergence, Preemergence, 0 to 100 scale, 0 = no effect, 100 = complete control, read-out: Plant response rating, Crabgrass, Large): 20%; pest or weed control at 500 g/ha ([6]; pre-emergence, Preemergence, visual injury, 0 to 100 scale (0 no effect, 100 complete control), approx. ten days, read-out: Plant response rating, Crabgrass, Large): 90%; plant injury at 125 g/ha ([7]; post-emergence, Postemergence, 125 g ai/ha, visual injury, 0 to 100 scale (0 no effect, 100 complete control), approx. ten days, read-out: Corn plant response rating): 10%; Corn plant response rating (crop injury, 0 = no effect, 100 = complete kill) at 500 g/ha ([7]; post-emergence, Postemergence, 0 to 100 scale, 0 = no effect, 100 = complete control, approx. ten days): 50%; Corn plant response rating (crop injury, 0 = no effect, 100 = complete kill) at 125 g/ha ([7]; pre-emergence, Preemergence, 125 g ai/ha, 0 to 100 scale, 0 = no effect, 100 = complete control): 0%; Corn plant response rating (crop injury, 0 = no effect, 100 = complete kill) at 500 g/ha ([7]; pre-emergence, Preemergence, visual injury, 0 to 100 scale (0 no effect, 100 complete control), approx. ten days): 20%; pest or weed control at 125 g/ha ([8]; post-emergence, Postemergence, visual injury, 0 to 100 scale (0 no effect, 100 complete control), approx. ten days, read-out: Barnyardgrass plant response rating): 90%; pest or weed control at 500 g/ha ([8]; post-emergence, Postemergence, 0 to 100 scale, 0 = no effect, 100 = complete control, approx. ten days, read-out: Plant response rating, Barnyardgrass): 100%; pest or weed control at 125 g/ha ([8]; pre-emergence, Preemergence, 0 to 100 scale, 0 = no effect, 100 = complete control, read-out: Plant response rating, Barnyardgrass): 10%; pest or weed control at 500 g/ha ([8]; pre-emergence, Preemergence, visual injury, 0 to 100 scale (0 no effect, 100 complete control), approx. ten days, read-out: Plant response rating, Barnyardgrass): 70%; pest or weed control at 125 g/ha ([9]; post-emergence, Postemergence, visual injury, 0 to 100 scale (0 no effect, 100 complete control), approx. ten days, read-out: Foxtail, Giant plant response rating): 80%; pest or weed control at 500 g/ha ([9]; post-emergence, Postemergence, 0 to 100 scale, 0 = no effect, 100 = complete control, approx. ten days, read-out: Plant response rating, Foxtail, Giant): 90%; pest or weed control at 125 g/ha ([9]; pre-emergence, Preemergence, 0 to 100 scale, 0 = no effect, 100 = complete control, read-out: Plant response rating, Foxtail, Giant): 10%; pest or weed control at 500 g/ha ([9]; pre-emergence, Preemergence, visual injury, 0 to 100 scale (0 no effect, 100 complete control), approx. ten days, read-out: Plant response rating, Foxtail, Giant): 70%; pest or weed control at 125 g/ha ([10]; post-emergence, Postemergence, visual injury, 0 to 100 scale (0 no effect, 100 complete control), approx. ten days, read-out: Velvetleaf plant response rating): 100%; pest or weed control at 500 g/ha ([10]; post-emergence, Postemergence, 0 to 100 scale, 0 = no effect, 100 = complete control, approx. ten days, read-out: Plant response rating, Velvetleaf): 100%; pest or weed control at 125 g/ha ([10]; pre-emergence, Preemergence, 0 to 100 scale, 0 = no effect, 100 = complete control, read-out: Plant response rating, Velvetleaf): 40%; pest or weed control at 500 g/ha ([10]; pre-emergence, Preemergence, visual injury, 0 to 100 scale (0 no effect, 100 complete control), approx. ten days, read-out: Plant response rating, Velvetleaf): 100%; pest or weed control at 125 g/ha ([11]; post-emergence, Postemergence, visual injury, 0 to 100 scale (0 no effect, 100 complete control), approx. ten days, read-out: Pigweed plant response rating): 100%; pest or weed control at 500 g/ha ([11]; post-emergence, Postemergence, 0 to 100 scale, 0 = no effect, 100 = complete control, approx. ten days, read-out: Plant response rating, Pigweed): 100%; pest or weed control at 125 g/ha ([11]; pre-emergence, Preemergence, 0 to 100 scale, 0 = no effect, 100 = complete control, read-out: Plant response rating, Pigweed): 90%; pest or weed control at 500 g/ha ([11]; pre-emergence, Preemergence, visual injury, 0 to 100 scale (0 no effect, 100 complete control), approx. ten days, read-out: Plant response rating, Pigweed): 90%; plant injury at 250 g/ha ([12]; 250 g ai/ha, flooded paddy test, visual rating on 0 to 100 scale (0 no effect, 100 complete control) after 13 to 15 days, read-out: Plant response rating, Flood, Rice): 0%; plant injury at 31 g/ha ([12]; Flood (flooded paddy test), 31 g ai/ha, scale of 0 to 100 where 0 is no effect and 100 is complete control, 13 to 15 days, read-out: Plant response rating, Rice): 0%; plant injury at 62 g/ha ([12]; Flood (flooded paddy test), 62 g ai/ha, scale 0 to 100, 0 is no effect, 100 is complete control, 13 to 15 days, read-out: Plant response rating, Rice): 0%; plant injury at 125 g/ha ([12]; Flood (flooded paddy test), 125 g ai/ha, scale 0 to 100, 0 is no effect, 100 is complete control, 13 to 15 days, read-out: Plant response rating, Rice): 0%; pest or weed control at 250 g/ha ([13]; 250 g ai/ha, flooded paddy test, visual rating on 0 to 100 scale (0 no effect, 100 complete control) after 13 to 15 days, read-out: Plant response rating, Flood, Ducksalad): 85%; pest or weed control at 31 g/ha ([13]; Flood (flooded paddy test), 31 g ai/ha, scale of 0 to 100 where 0 is no effect and 100 is complete control, 13 to 15 days, read-out: Plant response rating, Ducksalad): 20%; pest or weed control at 62 g/ha ([13]; Flood (flooded paddy test), 62 g ai/ha, scale 0 to 100, 0 is no effect, 100 is complete control, 13 to 15 days, read-out: Plant response rating, Ducksalad): 40%; pest or weed control at 125 g/ha ([13]; Flood (flooded paddy test), 125 g ai/ha, scale 0 to 100, 0 is no effect, 100 is complete control, 13 to 15 days, read-out: Plant response rating, Ducksalad): 75%
